# Where “and” joins values, the source holds several entries; their conditions need not be identical. Equal values may be shown once.
# Legend:
# HL60 cells [1] = test: Nucleosomal DNA fragmentation assay; type: cell-based, human; details: HL60, 5 h, same concentrations as in the cytotoxicity assay, agarose gel
# Procedure: The HL60 tumoral cell line was used with the aim of analyse the apoptotic induction. […] A non-treated cells control was included for each experiment. For DNA fragmentation, treated cells were collected, were centrifuged at 4000 rpm for 5 min and washed with PBS. […] The agarose gels were run at 50 V for 90 min in TBE (Tris/Borate/EDTA) buffer and then observed and photographed under UV light. For Annexin V-PI test, Annexin V Apoptosis Detection Kit ([…] Biotech S.L., Cordoba, Spain) was used. Briefly, cells were resuspended in 100 μL of Binding buffer solution 1× and subsequently, 5 μL AnnexinV-FITC (Fluorescein isothiocyanate) and 10 μL propidium iodide were added, and samples were incubated for 10 min at room temperature in darkness, and flow cytometry (Beckman Coulter Inc., Brea, CA, USA) was then used to analyze the rate of apoptosis.
# [2] = test system: Drosophila melanogaster transheterozygous larvae; test: Genotoxicity (single treatment), Drosophila wing spot test (SMART); type: in vivo; design: key to Mann-Whitney Test: n.s.: non-significant; details: for Mann-Whitney Test: vs negative control
# Procedure: (§1) The principles and basic procedures for the Drosophila wing spot test have been described by Graf et al., and in previous works of our group. Two strains of flies carrying wing genetic markers on the left arm of chromosome 3: multiple wing […] used. The transheterozygous larvae were obtained by crossing […] (Third Multiple 3), Bd^S(Beaded […]) virgin females. Hybrid eggs derived from crossing optimally fertile flies were collected over an 8 h period. […] Concurrent negative controls with the solvent alone (water) and positive controls with hydrogen peroxide (120 mM) were also run. Anti-genotoxicity tests were carried out by mixing the mutagen (hydrogen peroxide, 120 mM) with the compounds solution. After emergence, adult flies were collected from the treatment vials and stored in 70% ethanol. The wings of the flies were removed under a stereomicroscope using a pair of entomological tweezers, similar number of males and females-wings were mounted in Faure's solution on microscope slides and inspected, under 400× magnification, for the presence of clones of cells. The mutant clones were classified into three types: […] The appearance of twin spots indicated the recombinogenic activity of the chemotherapeutic agent (Figure 1). The frequencies of spots per fly of treated series were compared with its corresponding negative control series (water) to analyze Somatic Mutation and Recombination Test (SMART) data. For maximum power, statistical analyses were done exclusively for the total number of spots recovered. The non-parametric U test of Mann, Whitney and Wilcoxon was used to avoid weak positive and inconclusive results on SMART and to achieve a well-defined statistical diagnosis whether a given treatment should be regarded as genotoxic or not. The inhibition percentages (IP) were calculated using the total spots per wing with the following formula [16, 36]: IP = ((Genotoxine alone - Genotoxine plus active compound)/Genotoxine alone) × 100
# HL60 cells [3] = test: Cytotoxicity assay, trypan blue exclusion; type: cell-based, human; details: for cytotoxic effect (tumoral viability): HL60, 72 h, trypan blue exclusion, at the tested concentrations
# Procedure: Therefore, all the cells that exclude the dye are viable. Non-viable cells stained purple-violet, whereas viable ones remained unstained. Trypan blue was added to cell cultures at a 1:1 ratio, and 20 μL of cell suspension was loaded into a Neubauer chamber. The cells were counted under an inverted microscope at 100× magnification. […] Curves are expressed as survival percentage with respect to controls growing at 72 h. All data represent the average of at least three independent experiments.
# [4] = test system: Drosophila melanogaster transheterozygous larvae; test: Anti-genotoxicity (combined treatment with hydrogen peroxide 120 mM), Drosophila wing spot test (SMART); type: in vivo; design: key to Mann-Whitney Test: n.s.: non-significant; details: for Large Spots (>2 Cells) m = 5 / Small Spots (1–2 Cells) m = 2 / Total Spots m = 2 / Twin Spots m = 5 / Mann-Whitney Test: combined treatment with H2O2 120 mM; for Mann-Whitney Test: vs negative control
# Procedure: as §1
# HL60 cells [5] = test: Annexin V-PI apoptosis assay (flow cytometry); type: cell-based, human; details: HL60, 5 h, highest concentrations
# Procedure: The HL60 tumoral cell line was used with the aim of analyse the apoptotic induction. HL60 cells (1.5 × 10^6 cells) were treated with the same concentrations of the different compounds for 5 h. A non-treated cells control was included for each experiment. For DNA fragmentation, treated cells were collected, were centrifuged at 4000 rpm for 5 min and washed with PBS. The DNA was extracted using a commercial kit (MBL 243, Dominion mbl, Córdoba, Spain) and the resulting total DNA was treated with RNAse in order to eliminate false positive for 30 min at 37 °C. Samples of 1.5 μg of DNA were mixed with loading buffer and loaded onto a pre-solidified 2% agarose gel containing ethidium bromide. The agarose gels were run at 50 V for 90 min in TBE (Tris/Borate/EDTA) buffer and then observed and photographed under UV light. For Annexin V-PI test, Annexin V Apoptosis Detection Kit (Canvax Biotech S.L., Cordoba, Spain) was used. Briefly, cells were resuspended in 100 μL of Binding buffer solution 1× and subsequently, 5 μL AnnexinV-FITC (Fluorescein isothiocyanate) and 10 μL propidium iodide were added, and samples were incubated for 10 min at room temperature in darkness, and flow cytometry (Beckman Coulter Inc., Brea, CA, USA) was then used to analyze the rate of apoptosis.
# HL60 cells [6] = details: cited from earlier work
# Drosophila melanogaster = test system: Drosophila melanogaster; design: method as in PMID 19937581; details: SMART, 1, 2 and 4 mg/mL; cited from earlier work
smiles,measurement,setting,value
"O=C1OC(C(O)CO)C(=O)C1=O (stereo not drawn) [DHA, dehydroascorbic acid]",internucleosomal DNA fragmentation ladder pattern,HL60 cells [1],did not show any internucleosomal fragmentation ladder pattern
same,Large Spots (>2 Cells) m = 5,"[2]; single treatment, 0.003 mM",0.03 (1) clones per wing
same,Small Spots (1–2 Cells) m = 2,"[2]; single treatment, 0.003 mM",0.10 (4) clones per wing
same,Total Spots m = 2,"[2]; single treatment, 0.003 mM",0.13 (5) clones per wing
same,Twin Spots m = 5,"[2]; single treatment, 0.003 mM",0.00 (0) clones per wing
same,Mann-Whitney Test,"[2]; single treatment, 0.003 mM",n.s.
same,Large Spots (>2 Cells) m = 5,"[2]; single treatment, 0.107 mM",0.03 (1) clones per wing
same,Small Spots (1–2 Cells) m = 2,"[2]; single treatment, 0.107 mM",0.15 (6) clones per wing
same,Total Spots m = 2,"[2]; single treatment, 0.107 mM",0.18 (7) clones per wing
same,Twin Spots m = 5,"[2]; single treatment, 0.107 mM",0.00 (0) clones per wing
same,Mann-Whitney Test,"[2]; single treatment, 0.107 mM",n.s.
same,Total Spots m = 2,"[2]; single treatment, 0.107 mM, listed as dehydroascorbic acid",0.18 clones per wing
same,cytotoxicity,"HL60 cells [3]; HL60, 0.7 mM",did not show cytotoxicity
same,cytotoxic effect (tumoral viability),HL60 cells [3],slight cytotoxic activities
same,Large Spots (>2 Cells) m = 5,[4]; 0.003 mM,0.00 (0) clones per wing
same,Small Spots (1–2 Cells) m = 2,[4]; 0.003 mM,0.08 (3) clones per wing
same,Total Spots m = 2,[4]; 0.003 mM,0.08 (3) clones per wing
same,Twin Spots m = 5,[4]; 0.003 mM,0.00 (0) clones per wing
same,Mann-Whitney Test,[4]; 0.003 mM,n.s.
same,Large Spots (>2 Cells) m = 5,[4]; 0.107 mM,0.03 (1) clones per wing
same,Small Spots (1–2 Cells) m = 2,[4]; 0.107 mM,0.10 (4) clones per wing
same,Total Spots m = 2,[4]; 0.107 mM,0.13 (5) clones per wing
same,Twin Spots m = 5,[4]; 0.107 mM,0.00 (0) clones per wing
same,Mann-Whitney Test,[4]; 0.107 mM,n.s.
"OO [H2O2, hydrogen peroxide, reference compound]",Large Spots (>2 Cells) m = 5,"[2]; positive control alone, 120 mM",0.13 (5) clones per wing
same,Small Spots (1–2 Cells) m = 2,"[2]; positive control alone, 120 mM",0.38 (15) clones per wing
same,Total Spots m = 2,"[2]; positive control alone, 120 mM",0.52 clones per wing and 0.52 (21) clones per wing
same,Twin Spots m = 5,"[2]; positive control alone, 120 mM",0.03 (1) clones per wing
same,Mann-Whitney Test,"[2]; positive control alone, 120 mM",* (*: significant (p ≤ 0.05))
"CC1=C[C@H](O)CC(C)(C)[C@H]1/C=C/C(C)=C/C=C/C(C)=C/C=C/C=C(C)/C=C/C=C(C)/C=C/C1=C(C)C[C@@H](O)CC1(C)C [Lutein, lutein]",internucleosomal DNA fragmentation ladder pattern,HL60 cells [1],did not show any internucleosomal fragmentation ladder pattern
same,Large Spots (>2 Cells) m = 5,"[2]; single treatment, 0.039 μM",0.08 (3) clones per wing
same,Small Spots (1–2 Cells) m = 2,"[2]; single treatment, 0.039 μM",0.15 (6) clones per wing
same,Total Spots m = 2,"[2]; single treatment, 0.039 μM",0.23 (9) clones per wing
same,Twin Spots m = 5,"[2]; single treatment, 0.039 μM",0.00 (0) clones per wing
same,Mann-Whitney Test,"[2]; single treatment, 0.039 μM",n.s.
same,Large Spots (>2 Cells) m = 5,"[2]; single treatment, 0.615 μM",0.08 (3) clones per wing
same,Small Spots (1–2 Cells) m = 2,"[2]; single treatment, 0.615 μM",0.33 (13) clones per wing
same,Total Spots m = 2,"[2]; single treatment, 0.615 μM",0.45 (18) clones per wing
same,Twin Spots m = 5,"[2]; single treatment, 0.615 μM",0.05 (2) clones per wing
same,Mann-Whitney Test,"[2]; single treatment, 0.615 μM",n.s.
same,Total Spots m = 2,"[2]; single treatment, 0.615 μM, listed as lutein",0.45 clones per wing
same,cytotoxic effect (tumoral viability),HL60 cells [3],did not observe any cytotoxic effect
same,Large Spots (>2 Cells) m = 5,[4]; 0.039 μM,0.06 (2) clones per wing
same,Small Spots (1–2 Cells) m = 2,[4]; 0.039 μM,0.06 (2) clones per wing
same,Total Spots m = 2,[4]; 0.039 μM,0.13 (4) clones per wing
same,Twin Spots m = 5,[4]; 0.039 μM,0.00 (0) clones per wing
same,Mann-Whitney Test,[4]; 0.039 μM,n.s.
same,Large Spots (>2 Cells) m = 5,[4]; 0.615 μM,0.16 (5) clones per wing
same,Small Spots (1–2 Cells) m = 2,[4]; 0.615 μM,0.25 (8) clones per wing
same,Total Spots m = 2,[4]; 0.615 μM,0.47 (15) clones per wing
same,Twin Spots m = 5,[4]; 0.615 μM,0.06 (2) clones per wing
same,Mann-Whitney Test,[4]; 0.615 μM,* (*: significant (p ≤ 0.05))
same,Total Spots m = 2,"[4]; 0.615 μM, listed as lutein",0.47 clones per wing
CC1=C(/C=C/C(C)=C/C=C/C(C)=C/C=C/C=C(C)/C=C/C=C(C)/C=C/C2=C(C)CCCC2(C)C)C(C)(C)CCC1 [β-carotene],internucleosomal DNA fragmentation ladder pattern,HL60 cells [1],did not show any internucleosomal fragmentation ladder pattern
same,apoptosis by Annexin V/PI versus negative control,HL60 cells [5],induced apoptosis
same,Large Spots (>2 Cells) m = 5,"[2]; single treatment, 0.0003 μM",0.00 (0) clones per wing
same,Small Spots (1–2 Cells) m = 2,"[2]; single treatment, 0.0003 μM",0.08 (3) clones per wing
same,Total Spots m = 2,"[2]; single treatment, 0.0003 μM",0.08 (3) clones per wing
same,Twin Spots m = 5,"[2]; single treatment, 0.0003 μM",0.00 (0) clones per wing
same,Mann-Whitney Test,"[2]; single treatment, 0.0003 μM",n.s.
same,Large Spots (>2 Cells) m = 5,"[2]; single treatment, 0.0689 μM",0.03 (1) clones per wing
same,Small Spots (1–2 Cells) m = 2,"[2]; single treatment, 0.0689 μM",0.03 (1) clones per wing
same,Total Spots m = 2,"[2]; single treatment, 0.0689 μM",0.05 (2) clones per wing
same,Twin Spots m = 5,"[2]; single treatment, 0.0689 μM",0.00 (0) clones per wing
same,Mann-Whitney Test,"[2]; single treatment, 0.0689 μM",n.s.
same,ID50,HL60 cells [6],27 µM
same,inhibition at 0.0003 µM,"[4]; Drosophila melanogaster, ip, 0.0003 μM, against H2O2 120 mM, read-out: inhibition percentage (IP) of genotoxicity",100%
same,Large Spots (>2 Cells) m = 5,[4]; 0.0003 μM,0.00 (0) clones per wing
same,Small Spots (1–2 Cells) m = 2,[4]; 0.0003 μM,0.00 (0) clones per wing
same,Total Spots m = 2,[4]; 0.0003 μM,0.00 (0) clones per wing
same,Twin Spots m = 5,[4]; 0.0003 μM,0.00 (0) clones per wing
same,Mann-Whitney Test,[4]; 0.0003 μM,n.s.
same,Large Spots (>2 Cells) m = 5,[4]; 0.0689 μM,0.03 (1) clones per wing
same,Small Spots (1–2 Cells) m = 2,[4]; 0.0689 μM,0.08 (3) clones per wing
same,Total Spots m = 2,[4]; 0.0689 μM,0.11 (4) clones per wing
same,Twin Spots m = 5,[4]; 0.0689 μM,0.00 (0) clones per wing
same,Mann-Whitney Test,[4]; 0.0689 μM,n.s.
same,detoxification of the mutation induced by doxorubicin,Drosophila melanogaster,up to 95%
